Legend:
PAR-2 = target: T1, PAR-2 (Homo sapiens, UniProt P55085); assay: Calcium influx in PAR-2-expressing insect cells; assay type: cell-based; conditions: AST 2 units/mL; trypsin, thrombin 0.1 to 10 units/mL; SFLLRNamide, SLIGRL 10 to 100 μM
T1 construct: expressed in transfected cells; host or cells: Sf9 insect cells infected with recombinant baculovirus VL-PAR (pVL1393)
T1 sequence (P55085 26-397): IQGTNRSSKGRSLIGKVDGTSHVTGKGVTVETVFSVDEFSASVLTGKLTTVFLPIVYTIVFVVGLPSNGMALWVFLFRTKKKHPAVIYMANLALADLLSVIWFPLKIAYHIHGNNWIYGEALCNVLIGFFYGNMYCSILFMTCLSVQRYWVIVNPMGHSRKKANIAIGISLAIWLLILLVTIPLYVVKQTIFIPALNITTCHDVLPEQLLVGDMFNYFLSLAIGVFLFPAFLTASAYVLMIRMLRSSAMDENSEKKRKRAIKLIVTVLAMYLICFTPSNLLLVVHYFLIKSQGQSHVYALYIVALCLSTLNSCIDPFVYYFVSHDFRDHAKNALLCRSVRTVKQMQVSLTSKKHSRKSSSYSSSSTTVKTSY
Procedure: (§1) The above-obtained recombinant baculovirus VL-PAR for expressing the PAR was used to infect 1.0×10^7 Sf9 cells sowed on a 75 cm^2 flask at an MOI=2, and was then left and stationally cultured at 27° C. for 40 hours. After the culture, the infected cells were recovered and then subjected to a calcium influx experiment to-confirm the function of the PAR.
(§2) The recovered infected cells (about 5×10^6 cells) were once washed with HEPES-Tyrode buffer solution-Ca^2+ (−) pH 7.4, and then suspended in 5 mL of HEPES-Tyrode buffer solution (containing Fura2-AM, 1 μg/mL) to load the Fura2-AM on the cells at 27° C. for 30 minutes. The suspension was centrifuged at 800 rpm at room temperature for 5 minutes to recover the cells. The cells were twice washed with HEPES-Tyrode buffer solution-Ca^2+ (−) pH 7.4 and then resuspended in 5 mL of HEPES-Tyrode buffer solution-Ca^2+ (−) pH 7.4. The cell suspension was mixed with 5 μL of 1M CaCl2 to give a final concentration of 1 mM CaCl2, and then incubated in a shaded state at room temperature for 5 minutes. The prepared Fura2-AM-loaded infected cells were dispensed into a 96 well plate in a volume of 100 μL/well, further subjected to the dispensation of HEPES-Tyrode buffer solution-C^2+ (+) pH 7.4 in a volume of 80 μL/well, and then assayed with a Fluorescence Drug Screening System (made by Hamamatsu Photonics Co.). Namely, [intensity of 500 nm fluorescent light due to 340 nm exciting light]/[intensity of 500 nm fluorescent light due to 380 nm exciting light] (reflecting the concentration of calcium in the cells) was assayed.

NCI-H292 cells = assay: AB-PAS staining of mucus glycoprotein in NCI-H292 cells; assay type: cell-based, human; conditions: FIG. 1 and 2
Procedure: (§3) NCI-H292 cells (human pulmonary mucoepidermoid tumor cell strain, purchased from ATCC) were suspended in 10% FCS (Fetal Calf Serum)-containing RPMI-1640 (produced by Gibco Corp.), sowed on a Lab-Tek 8 well chamber slide (produced by Nunc Corp.) in a density of 6.0×10^4 cells/cm^2, cultured for 72 hours, subjected to the replacement of the culture solution by RPMI-1640 containing 0.1% of BSA, and further cultured for 24 hours.
On the day of the treatment, the culture solution of each well was replaced by RPMI-1640 (containing 0.1% BSA) containing EGF (5 ng/mL, produced by Becton Dickinson Corp.), HB-EGF (5 ng/mL, produced by R & D Corp.), TGF-α (5 ng/mL, produced by Peprotech Corp.), or PBS to start the treatment. Then, the cells were incubated at 37° C. for 24 hours.
After the prescribed 24 hours treatment, the culture supernatant was removed. The residue was once washed with PBS, mixed with 4% paraformaldehyde/PBS, and then allowed to stand at room temperature for one hour to immobilize the cells. The immobilized cells were twice washed with Milli Q water and then stained with AB-PAS. The staining was carried out according to a book (“All of new dyeing methods” p136-150 (Iyaku Shuppansha)). After staining, the cells were sequentially immersed in 70, 80, and 100% ethanol for five minutes, respectively, to remove water, sealed in an Aquatex (produced by Merck Corp.), and then subjected to the observation of the staining image with an optical microscope. From the results, it was clarified that all of HAST, TGF-α, EGF, and HB-EGF promoted the production of the mucus glycoprotein.
as §3, with “(purchased” for “(human pulmonary mucoepidermoid tumor cell strain, purchased”, “FCS-containing” for “FCS (Fetal Calf Serum)-containing”, “hours. […]” for “hours.”

[1] = test system: HB-EGF on surface of H292 cell membrane; assay: Surface antigen analysis (FACS) of HB-EGF on NCI-H292 cell membrane; assay type: cell-based, human; conditions: HAST 300 mU/mL + inhibitor (leupeptin 10 μM, BB1101 5 μM); PBS 8.61, HAST alone 6.26
Procedure: (§4) NCI-H292 cells (purchased from ATCC) were cultured on a 10 cm dish in 10% FCS-containing RPMI-1640 until to reach a confluent state, subjected to the replacement of the culture medium by RPMI-1640 containing 0.1% of BSA, and further cultured for 24 hours. The cultured cells were washed with PBS, treated and floated in PBS containing 5 mM of EDTA at 37° C. for five minutes, and then suspended in 0.1%BSA-containing RPMI-1640 in a density of 1.0×10^7 cells/mL.
(§5) The above-described cell suspension and 0.1% BSA-containing RPMI-1640 containing HAST in a double concentration (600 mU/mL) were mixed with each other in equivalent amounts, respectively, and reacted with each other at 37° C. for 30 minutes (final cell concentration: 5.0×10^6 cells/mL, final HAST concentration: 300 mU/mL). The reaction solution was mixed with ice-cooled 1% FCS-containing PBS in a volume of 5 times that of the reaction solution to stop the reaction, and the treated solution was then supplied for a surface antigen analysis.
(§6) The cells subjected to the prescribed treatments were suspended in 1% FCS-containing PBS in a density of 1.0×10^7 cells/mL. 100 μL of the prepared cell suspension was mixed with a primary antigen (EGF back ground dyeing: 1 μg of normal mouse IgG1 (produced by R & D Corp.), EGF dyeing: 1 μg of an anti-EGF mouse monoclonal antibody (produced by R & D Corp.), HB-EGF back ground dyeing: free from the primary antigen, HB-EGF dyeing: 2 μg of an anti-HB-EGF goat polyclonal antibody (produced by R & D Corp.)) and reacted on ice for 30 minutes. The reaction product was once washed with 5 mL of 1% FCS-containing PBS, mixed with 2 μg of a secondary antigen (EGF back ground dyeing and EGF dyeing: FITC conjugated F(ab′)2 fragment to mouse IgG (produced by Dako Corp.), HB-EGF back ground dyeing and HB-EGF dyeing: Swine Anti-Goat Ig's Fluorescein Conjugate (produced by KPL Corp.)), and then reacted on ice for 30 minutes. The reaction solution was once washed with 5 mL of 1% FCS-containing PBS, and then mixed with Cell Fix (produced by Becton Dickinson Corp.) to immobilize the cells. The expression of the surface antigen was assayed with FACS Calibur (produced by Becton Dickinson Corp.) and analyzed with Cell Quest (produced by Becton Dickinson Corp.). Average fluorescence intensities were shown in the next table as the indicators of expression intensities.
(§7) HAST (600 mU/mL) was reacted with leupeptin (10 μM) or BB1101 (5 μM) in 0.1% BSA-containing RPMI-1640 on ice for 30 minutes, and the reaction solution was mixed with the equivalent amount of a cell suspension preliminarily treated with leupeptin (10 μM) or BB1101 (5 μM) at 37° C. for 30 minutes, and further treated at 37° C. for 30 minutes (final HAST concentration: 300 mU/mL, final leupeptin concentration: 10 μM, final BB1101 concentration: 5 μM, final cell concentration: 5.0×10^6 cells/mL). The reaction solution was mixed with ice-cooled 1% FCS-containing PBS in an amount of five times that of the reaction solution to stop the reaction, and then supplied for the surface antigen analysis.
(§8) The cells subjected to the prescribed treatments were suspended in 1% FCS-containing PBS in a density of 1.0×10^7 cells/mL. […]

[2] = test system: EGF on surface of H292 cell membrane; assay: Surface antigen analysis (FACS) of EGF on NCI-H292 cell membrane; assay type: cell-based, human; conditions: HAST 300 mU/mL + inhibitor (leupeptin 10 μM, BB1101 5 μM); PBS 10.79, HAST alone 8.33
Procedure: as §4, §5, §6, §7, §8

PAR-4 = target: T2, PAR-4 (Homo sapiens, UniProt Q96RI0); assay: Calcium influx in PAR-4-expressing insect cells; assay type: cell-based; conditions: AST 2 units/ml; trypsin, thrombin 0.1 to 10 units/mL
T2 construct: expressed in transfected cells; host or cells: Sf9 insect cells infected with recombinant baculovirus VL-PAR (pVL1393)
T2 sequence (Q96RI0 18-385): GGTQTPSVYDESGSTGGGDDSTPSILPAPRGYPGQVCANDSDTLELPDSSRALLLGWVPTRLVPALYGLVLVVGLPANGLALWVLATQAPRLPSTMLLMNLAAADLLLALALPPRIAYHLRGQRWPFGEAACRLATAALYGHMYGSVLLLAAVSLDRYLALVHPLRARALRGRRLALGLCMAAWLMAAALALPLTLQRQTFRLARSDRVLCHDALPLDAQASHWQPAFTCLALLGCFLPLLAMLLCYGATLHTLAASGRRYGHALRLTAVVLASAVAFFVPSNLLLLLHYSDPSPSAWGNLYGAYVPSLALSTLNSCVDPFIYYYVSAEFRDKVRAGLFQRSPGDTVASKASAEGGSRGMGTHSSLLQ
Procedure: as §1
as §2, with “Namely, [intensity of 500 nm fluorescent light due to 340 nm exciting light]/[intensity of 500 nm fluorescent light due to 380 nm exciting light] (reflecting the concentration of calcium in the cells) was assayed.” left out

PAR-1 = target: T3, PAR-1 (Homo sapiens, UniProt P25116); assay: Calcium influx in PAR-1-expressing insect cells; assay type: cell-based; conditions: AST 2 units/mL; trypsin, thrombin 0.1 to 10 units/mL; SFLLRNamide 10 to 100 μM
T3 construct: expressed in transfected cells; host or cells: Sf9 insect cells infected with recombinant baculovirus VL-PAR (pVL1393)
T3 sequence (P25116 22-425): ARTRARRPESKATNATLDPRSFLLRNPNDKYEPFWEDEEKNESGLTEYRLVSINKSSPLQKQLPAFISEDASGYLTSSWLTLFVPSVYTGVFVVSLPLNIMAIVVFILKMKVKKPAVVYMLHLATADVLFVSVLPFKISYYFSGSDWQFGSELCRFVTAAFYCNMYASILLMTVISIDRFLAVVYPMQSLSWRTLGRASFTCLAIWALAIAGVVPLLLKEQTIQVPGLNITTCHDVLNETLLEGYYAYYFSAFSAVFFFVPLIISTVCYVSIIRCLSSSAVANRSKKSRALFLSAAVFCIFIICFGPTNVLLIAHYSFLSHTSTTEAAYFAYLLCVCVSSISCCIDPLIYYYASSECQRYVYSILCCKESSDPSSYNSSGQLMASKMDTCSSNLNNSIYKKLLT

Row | Compound | Ca2+ influx (PAR-2) | production of the mucus glycoprotein (NCI-H292 cells) | HB-EGF expression intensity on the surfaces of the cell membranes (average fluorescence intensity) [1] | EGF expression intensity on the surfaces of the cell membranes (average fluorescence intensity) [2] | further results
1 | SLIGRL [agonist peptide for PAR-2] | observed |  |  |  | 
2 | HB-EGF: Heparin-binding EGF-like Growth Factor, EGFR ligand, produced by R & D Corp. [reference compound] |  | promoted |  |  | 
3 | CC(=O)N[C@@H](CC(C)C)C(=O)N[C@@H](CC(C)C)C(=O)N[C@H](C=O)CCCNC(=N)N [leupeptin, reference compound] |  |  | 7.3 | 10.18 | 
4 | C=CC[C@H](C(=O)NO)[C@@H](CC(C)C)C(=O)N[C@@H](Cc1ccccc1)C(=O)NC [BB01, reference compound] |  |  | 6.65 | 7.49 | 
5 | thrombin [reference compound] | observed |  |  |  | Ca2+ influx (PAR-4): observed; Ca2+ influx (PAR-1): observed
6 | TGF-α: Transforming Growth Factor-α, EGFR ligand, produced by Peprotech Corp. [reference compound] |  | promoted |  |  | 
